Measured values from US11396509B2, “Solid forms of a toll-like receptor modulator” (Gilead Sciences, Inc., priority 2019, dated 2022).

Experiment: Dynamic vapor sorption (moisture sorption/desorption)
Type: physicochemical
Conditions: for change of solid form post dynamic vapor sorption experiment: after DVS experiment up to 95% RH at 25° C.; for water absorbed (dynamic vapor sorption): up to 95% RH at 25° C.
Method: Moisture sorption/desorption data were collected on a VTI SGA-100 Vapor Sorption Analyzer. NaCl and PVP were used as calibration standards. Samples were not dried prior to analysis. Sorption and desorption data were collected over a range from 5% to 95% RH at 10% RH increments under a nitrogen purge. The equilibrium criterion used for analysis was less than 0.0100% weight change in 5 minutes with a maximum equilibration time of 3 hours. Weight percentages reported in the data section are relative to the total sample mass introduced prior to equilibration at 5% RH as measured on the instrument.

| SMILES | change of solid form post dynamic vapor sorption experiment | water absorbed (dynamic vapor sorption) |
| --- | --- | --- |
| CCCC[C@](C)(CO)Nc1nc(N)nc2cc(F)cnc12 [Compound I Gentisic Acid, (R)-2-((2-amino-7-fluoropyrido[3,2-d]pyrimidin-4-yl)amino)-2-methylhexan-1-ol gentisic acid] | not have changed forms | about 1.1% |
| CCCC[C@](C)(CO)Nc1nc(N)nc2cc(F)cnc12.O=C(O)CCC(=O)O [Compound I Succinic Acid, (R)-2-((2-amino-7-fluoropyrido[3,2-d]pyrimidin-4-yl)amino)-2-methylhexan-1-ol succinic acid] | not have changed forms | about 1.2% |
| CCCC[C@](C)(CO)Nc1nc(N)nc2cc(F)cnc12 [Compound I Hippuric Acid, (R)-2-((2-amino-7-fluoropyrido[3,2-d]pyrimidin-4-yl)amino)-2-methylhexan-1-ol hippuric acid] | not have changed forms | about 0.68% |
